Experimental data published in patent US5480902A, “Thienylpyrrole fungicidal agents” (American Cyanamid Company, priority 1993, dated 1996).
Read-outs that look alike come from different tables or passages of the source.

Columns and labels:
[1] = system: Pseudocercosporella herpotrichoides; assay: In vitro fungicidal activity, growth inhibition of ground fungal mycelia (PSDCHE); assay type: cell-based; settings: Oculimacula yallundae, 3-4 days at 21° C., averaged when more than one test, read-out: Growth inhibition rating, PSDCHE (converted)
Protocol: (§1) Test compounds are dissolved or suspended in acetone and dispersed into cell well plates containing a suspension of ground fungal mycelia in a nutrient broth. Assay plates are incubated for 3-4 days at 21° C. Growth inhibition is measured visually and is rated using the following scale:
(§2) Assay fungi include the plant pathogens, Pythium ultimum (Pythul); Rhizoctonia solani (Rhizso); Fusarium oxysporum f. sp. cucumerinum (Fusoxc); and Pseudocercosporella herpotrichoides (Psdche).
(§3) When more than one test is run, the data are averaged.

Rhizoctonia solani = assay: In vitro fungicidal activity, growth inhibition of ground fungal mycelia (RHIZSO); assay type: cell-based; settings: 3-4 days at 21° C., averaged when more than one test, read-out: Growth inhibition rating, RHIZSO
Protocol: as §1, §2, §3

Pythium ultimum = assay: In vitro fungicidal activity, growth inhibition of ground fungal mycelia (PYTHUL); assay type: cell-based; settings: Globisporangium ultimum, 3-4 days at 21° C., averaged when more than one test, read-out: Growth inhibition rating, PYTHUL (converted)
Protocol: as §1, §2, §3

[2] = system: Fusarium oxysporum f. sp. cucumerinum; assay: In vitro fungicidal activity, growth inhibition of ground fungal mycelia (FUSOXC); assay type: cell-based; settings: read-out: Growth inhibition rating, FUSOXC
Protocol: as §1, §2, §3

Venturia inaegualis = assay: In vivo fungicidal activity on host plants, Apple Scab (AS); settings: sprayed on host plants before inoculation
Pyricularia oryzae = assay type: in vivo; settings: sprayed on host plants before inoculation
Plasmopara viticola = assay: In vivo fungicidal activity on host plants, Grape Downy Mildew (GDM); settings: sprayed on host plants before inoculation
Cercospora beticola = assay: In vivo fungicidal activity on host plants, Sugar Beet Cercospora (SBC); settings: sprayed on host plants before inoculation; note: ranges in brackets are in %
Botrytis cinerea = assay: In vivo fungicidal activity on host plants, Pepper Botrytis (PB); settings: sprayed on host plants before inoculation
[3] = system: Erysiphe graminis f. sp. tritici; assay: In vivo fungicidal activity on host plants, Wheat Powdery Mildew (WPM); settings: sprayed on host plants before inoculation
[4] = system: Puccinia recondita f. sp. tritici; assay: In vivo fungicidal activity on host plants, Wheat Leaf Rust (WLR); settings: 400 ppm; sprayed on host plants before inoculation
[5] = 25 ppm, 3-4 days at 21° C., averaged when more than one test

Structure (SMILES)	inhibition at 25 ppm [1] [%]	inhibition at 25 ppm (Rhizoctonia solani) [%]	inhibition at 25 ppm (Pythium ultimum) [%]	inhibition at 25 ppm [2, 5] [%]	Disease control rating, AS (Venturia inaegualis; 200 ppm)	Disease control rating, RB (Pyricularia oryzae; 200 ppm)	Disease control rating, GDM (Plasmopara viticola; 200 ppm)	Disease control rating, SBC (Cercospora beticola; 200 ppm)	Disease control rating, PB (Botrytis cinerea; 200 ppm)	Disease control rating, WPM ([3]; 200 ppm)	Disease control rating, WLR [4]	Disease control rating, AS (Venturia inaegualis; 400 ppm)	Disease control rating, RB (Pyricularia oryzae; 400 ppm)	Disease control rating, GDM (Plasmopara viticola; 400 ppm)	Disease control rating, WPM ([3]; 400 ppm)	Disease control rating, SBC (Cercospora beticola; 400 ppm)	Disease control rating, PB (Botrytis cinerea; 400 ppm)	inhibition at 25 ppm [2] [%]
N#Cc1c(-c2ccc(Br)o2)[nH]c(C(F)(F)F)c1Br [Compound 19, 4-Bromo-2-(5-bromo-2-furyl)-5-(trifluoromethyl)pyrrole-3-carbonitrile]	0	0	0	0														
N#Cc1cc(C(F)(F)F)[nH]c1-c1cc(Br)cs1 [Compound 20, 2-(4-Bromo-2-thienyl)-5-(trifluoromethyl)pyrrole-3-carbonitrile]	0	0	0	0														
CCOCn1c(-c2ccc(Br)o2)c(C#N)c(Br)c1C(F)(F)F [Compound 22, 4-Bromo-2-(5-bromo-2-furyl)-1-(ethoxymethyl)-5-(trifluoromethyl)pyrrole-3-carbonitrile]	0	0	0	0														
CCOCn1c(-c2ccc(Br)s2)c(C#N)c(Br)c1C(F)(F)F [Compound 13, 4-Bromo-2-(5-bromo-2-thienyl)-1-(ethoxymethyl)-5-(trifluoromethyl)pyrrole-3-carbonitrile]	0	30 to 59	0	0	0 (0)	0 (0)	0 (0)	0 (0)	0 (0)	9 (100)								
N#Cc1c(-c2ccc(Br)s2)[nH]c(C(F)(F)F)c1Br [Compound 3, 4-Bromo-2-(5-bromo-2-thienyl)-5-(trifluoromethyl)pyrrole-3-carbonitrile]	30 to 59										9 (100)	9 (100)	0 (0)	9 (100)	7 (90-95)			
CCOCn1c(-c2ccc(Cl)s2)c(C#N)c(Br)c1C(F)(F)F [Compound 18, 4-Bromo-2-(5-chloro-2-thienyl)-1-(ethoxymethyl)-5-(trifluoromethyl)pyrrole-3-carbonitrile]	0	30 to 59	0	0														
N#Cc1cc(C(F)(F)F)[nH]c1-c1ccc(Br)o1 [Compound 14, 2-(5-Bromo-2-furyl)-5-(trifluoromethyl)pyrrole-3-carbonitrile]	0	30 to 59		0	0 (0)	0 (0)	6 (75-89)	0 (0)	0 (0)	6 (75-89)								
N#Cc1cc(C(F)(F)F)[nH]c1-c1ccc(Cl)s1 [Compound 16, 2-(5-Chloro-2-thienyl)-5-(trifluoromethyl)pyrrole-3-carbonitrile]	0	60 to 89	0	0														
N#Cc1cc(C(F)(F)F)[nH]c1-c1ccco1 [Compound 11, 2-(2-Furyl)-5-(trifluoromethyl)pyrrole-3-carbonitrile]	0		90 to 99	0	0 (0)	0 (0)	0 (0)	0 (0)	0 (0)									
N#Cc1cc(C(F)(F)F)[nH]c1-c1cccs1 [Compound 2, 2-(2-Thienyl)-5-(trifluoromethyl)pyrrole-3-carbonitrile]			100								9 (100)	9 (100)	5 (60-74)	9 (100)	9 (100)	0 (0)		
N#Cc1c(-c2ccc(Cl)s2)[nH]c(C(F)(F)F)c1Br [Compound 17, 4-Bromo-2-(5-chloro-2-thienyl)-5-(trifluoromethyl)pyrrole-3-carbonitrile]	0	60 to 89	30 to 59	0														
N#Cc1c(-c2cccs2)[nH]c(C(F)(F)F)c1Cl [Compound 12, 4-Chloro-2-(2-thienyl)-5-(trifluoromethyl)pyrrole-3-carbonitrile]	0	90 to 99	90 to 99	0	4 (45-59)	0 (0)	8 (96-99)	0 (0)	0 (0)	8 (96-99)								
O=[N+]([O-])c1ccc(-c2c(C(F)(F)F)[nH]c(-c3ccc(Cl)cc3)c2[N+](=O)[O-])s1 [Compound 5, 2-(p-Chlorophenyl)-3-nitro-4-(5-nitro-2-thienyl)-5-(trifluoromethyl)pyrrole]	60 to 89	90 to 99									6 (75-89)	4 (45-59)	0 (0)	9 (100)	0 (0)		0 (0)	30 to 59
N#Cc1cc(C(F)(F)F)[nH]c1-c1ccc(Br)s1 [Compound 15, 2-(5-Bromo-2-thienyl)-5-(trifluoromethyl)pyrrole-3-carbonitrile]	0	60 to 89	0	0														
O=[N+]([O-])c1c(-c2ccc(Cl)cc2)[nH]c(C(F)(F)F)c1-c1csc(Br)c1 [Compound 8, 3-(5-Bromo-3-thienyl)-5-(p-chlorophenyl)-4-nitro-2-(trifluoromethyl)pyrrole]	0	30 to 59	0	0							7 (90-95)	8 (96-99)	4 (45-59)	9 (100)	0 (0)		0 (0)	
N#Cc1c(-c2cc(Br)c(Br)s2)[nH]c(C(F)(F)F)c1Br [Compound 21, 4-Bromo-2-(4,5-dibromo-2-thienyl)-5-(trifluoromethyl)pyrrole-3-carbonitrile]	0	0	0	0														
O=[N+]([O-])c1c(-c2ccc(Cl)cc2)[nH]c(C(F)(F)F)c1-c1csc(Br)c1Br [Compound 10, 2-(p-Chlorophenyl)-4-(4,5-dibromo-3-thienyl)-3-nitro-5-(trifluoromethyl)pyrrole]	0		0									0 (0)	7 (90-95)	7 (90-95)	4 (45-59)	0 (0)	0 (0)	
